Experimental data as given in patent publication EP4725941A1, “ARYLAMIDE DERIVATIVE HAVING ANTITUMOR ACTIVITY” (priority 2020, dated 2021).
Read-outs that look alike come from different tables or passages of the source.

Experiments:
A549 = assay: Cell proliferation-inhibiting activity (ATP in viable cells, CellTiter-Glo), A549; type: cell-based, human; details: A549, 96 h; human lung cancer cells, 4 days; read-out: A549 IC50
Calu-6 = assay: Cell proliferation-inhibiting activity (ATP in viable cells, CellTiter-Glo), Calu-6; type: cell-based, human; details: Calu-6, 96 h; human lung cancer cells, 4 days; read-out: Calu-6 IC50
MEK1 = molecular target: T1, MEK1 (Homo sapiens, UniProt Q02750); assay: MEK1-inhibiting activity, fluorescent polarization method (CRAF/MEK1/ERK2 cascade, IMAP); type: biochemical
T1 construct: purchased Thermo Fisher Scientific Inc. (MEK1, CRAF); Carna Biosciences, Inc. (ERK2)
T1 sequence (Q02750 whole entry): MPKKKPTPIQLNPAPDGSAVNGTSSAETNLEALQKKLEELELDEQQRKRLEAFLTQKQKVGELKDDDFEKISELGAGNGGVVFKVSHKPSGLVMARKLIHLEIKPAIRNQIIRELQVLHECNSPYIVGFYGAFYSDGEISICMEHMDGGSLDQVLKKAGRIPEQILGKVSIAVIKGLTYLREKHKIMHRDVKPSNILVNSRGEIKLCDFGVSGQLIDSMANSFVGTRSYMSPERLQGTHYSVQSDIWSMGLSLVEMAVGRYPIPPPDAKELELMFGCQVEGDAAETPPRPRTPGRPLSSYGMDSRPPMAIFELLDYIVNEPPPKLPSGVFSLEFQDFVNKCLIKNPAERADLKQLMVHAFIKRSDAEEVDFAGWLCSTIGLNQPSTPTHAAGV
Experimental: The MEK1-inhibiting activity of the compounds listed in Table 3 below were evaluated by the fluorescent polarization method as described below.

[1] = Human liver microsome stability; type: in vitro ADME; details: human liver microsomes, pH 7.4
BRAF = molecular target: T2, BRAF (Homo sapiens, UniProt P15056); assay: BRAF-inhibiting activity, time-resolved fluorescence-fluorescence resonance energy transfer assay; type: biochemical
T2 construct: purchased Eurofins Genomics KK; (BRAF); Thermo Fisher Scientific Inc. (MEK1)
T2 sequence (P15056 417-766 limits assumed): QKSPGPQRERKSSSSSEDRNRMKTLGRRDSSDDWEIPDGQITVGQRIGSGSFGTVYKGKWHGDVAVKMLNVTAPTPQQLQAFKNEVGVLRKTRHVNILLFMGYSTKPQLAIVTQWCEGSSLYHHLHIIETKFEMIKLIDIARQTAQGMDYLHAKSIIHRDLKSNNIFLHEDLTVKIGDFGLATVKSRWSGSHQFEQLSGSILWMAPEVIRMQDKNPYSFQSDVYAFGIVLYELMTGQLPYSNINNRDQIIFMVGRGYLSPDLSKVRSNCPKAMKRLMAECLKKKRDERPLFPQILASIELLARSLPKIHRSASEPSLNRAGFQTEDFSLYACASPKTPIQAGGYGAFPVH
Experimental: The BRAF-inhibiting activity of the compounds listed in Table 3 below was evaluated by the time-resolved fluorescence-fluorescence resonance energy transfer assay as described below.

NCI-H2122 = assay: Cell proliferation-inhibiting activity (ATP in viable cells, CellTiter-Glo), NCI-H2122; type: cell-based, human; details: NCI-H2122, 96 h; human lung cancer cells, 4 days; read-out: NCI-H2122 IC50

NC(=O)c1cc(Cc2cccc(NS(=O)(=O)CC3CC3)c2F)c(F)c(F)c1Nc1ccc(I)cc1F [Compound E-14, 5-[[3-(Cyclopropylmethylsulfonylamino)-2-fluorophenyl]methyl]-3,4-di fluoro-2-(2-fluoro-4-iodoanilino)benzamide]
IC50 (A549): 13 nM | IC50 (Calu-6): 71 nM | IC50 (MEK1; Table 3, read-out: MEK1 IC50): 343 nM | microsomal CLint at 0.99 µM [1]: 22 µL/min/mg | IC50 (BRAF; read-out: BRAF IC50; Table 3): 17 nM | IC50 (NCI-H2122): 7 nM

CONC(=O)c1cc(Cc2cccc(NS(=O)(=O)C3(C)CC3)c2F)c(F)c(F)c1Nc1ccc(I)cc1F [Compound E-5, 3,4-Difluoro-2-(2-fluoro-4-iodoanilino)-5-[[2-fluoro-3-[(1-methylcyclopropyl)sulfonylamino]phenyl]methyl]-N-methoxybenzamide]
IC50 (A549): 5 nM | IC50 (Calu-6): 17 nM | IC50 (MEK1; Table 3, read-out: MEK1 IC50): 19 nM | microsomal CLint at 0.99 µM [1]: 78 µL/min/mg | IC50 (BRAF; read-out: BRAF IC50; Table 3): 8 nM | IC50 (NCI-H2122): 3 nM

CCCNS(=O)(=O)Nc1nccc(Cc2cc(C(N)=O)c(Nc3ccc(I)cc3F)c(F)c2F)c1F [Compound A-41, 3,4-difluoro-2-(2-fluoro-4-iodoanilino)-5-[[3-fluoro-2-(propylsulfamoylamino)pyridin-4-yl]methyl]benzamide]
IC50 (A549): 12 nM | IC50 (Calu-6): 8 nM | IC50 (MEK1; Table 3, read-out: MEK1 IC50): 29 nM | microsomal CLint at 0.99 µM [1]: 5 µL/min/mg | IC50 (BRAF; read-out: BRAF IC50; Table 3): 7 nM | IC50 (NCI-H2122): 2 nM

CNS(=O)(=O)Nc1nccc(Cc2cc(C(=O)NOCCOC)c(Nc3ccc(I)cc3F)c(F)c2F)c1F [Compound B-2, 3,4-Difluoro-2-(2-fluoro-4-iodoanilino)-5-[[3-fluoro-2-(methylsulfamoylamino)pyridin-4-yl]methyl]-N-(2-methoxyethoxy)benzamide]
IC50 (A549): 1 nM | IC50 (Calu-6): 7 nM | IC50 (MEK1; Table 3, read-out: MEK1 IC50): 4 nM | microsomal CLint at 0.99 µM [1]: 53 µL/min/mg | IC50 (BRAF; read-out: BRAF IC50; Table 3): 3 nM | IC50 (NCI-H2122): 1 nM

CNS(=O)(=O)Nc1cccc(Cc2cc(C(N)=O)c(Nc3ccc(I)cc3F)n(C)c2=O)c1F [Compound K-1, 2-(2-Fluoro-4-iodoanilino)-5-[[2-fluoro-3-(methylsulfamoylamino)phenyl]methyl]-1-methyl-6-oxopyridine-3-carboxamide]
IC50 (A549): 3 nM | IC50 (Calu-6): 14 nM | IC50 (MEK1; Table 3, read-out: MEK1 IC50): 55 nM | microsomal CLint at 0.99 µM [1]: 97 µL/min/mg | IC50 (BRAF; read-out: BRAF IC50; Table 3): 3 nM | IC50 (NCI-H2122): 4 nM

CNS(=O)(=O)Nc1nccc(Cc2cc(C(=O)NOCCO)c(Nc3ccc(I)cc3F)c(F)c2F)c1F [Compound B-1, 3,4-difluoro-2-(2-fluoro-4-iodoanilino)-5-[[3-fluoro-2-(methylsulfamoylamino)pyridin-4-yl]methyl]-N-(2-hydroxyethoxy)benzamide]
IC50 (A549): 6 nM | IC50 (Calu-6): 11 nM | IC50 (MEK1; Table 3, read-out: MEK1 IC50): 2 nM | microsomal CLint at 0.99 µM [1]: 15 µL/min/mg | IC50 (BRAF; read-out: BRAF IC50; Table 3): 5 nM | IC50 (NCI-H2122): 2 nM

CNS(=O)(=O)Nc1nccc(Cc2cc(C(=O)NC3CC3(F)F)c(Nc3ccc(I)cc3F)c(F)c2F)c1F (racemic) [Compound B-6, (+/-)-N-(2,2-Difluorocyclopropyl)-3,4-difluoro-2-(2-fluoro-4-iodoanilino)-5-[[3-fluoro-2-(methylsulfamoylamino)pyridin-4-yl]methyl]benzamide (racemate)]
IC50 (A549): 2 nM | IC50 (Calu-6): 16 nM | IC50 (MEK1): 97 nM | microsomal CLint at 0.99 µM [1]: 20 µL/min/mg | IC50 (BRAF; Table 3; read-out: BRAF IC50): 15 nM | IC50 (NCI-H2122): 1 nM

CCNS(=O)(=O)Nc1nccc(Cc2cc(C(N)=O)c(Nc3ccc(I)cc3F)c(F)c2F)c1F [Compound A-40, 5-[[2-(ethylsulfamoylamino)-3-fluoropyridin-4-yl]methyl]-3,4-d ifluoro-2-(2-fluoro-4-iodoanilino)benzamide]
IC50 (A549): 4 nM | IC50 (Calu-6): 12 nM | IC50 (MEK1; Table 3, read-out: MEK1 IC50): 19 nM | microsomal CLint at 0.99 µM [1]: 2 µL/min/mg | IC50 (BRAF; read-out: BRAF IC50; Table 3): 2 nM | IC50 (NCI-H2122): 2 nM

CC(C)(C)ONC(=O)c1cc(Cc2ccnc(NS(=O)(=O)NC3CC3)c2F)c(F)c(F)c1Nc1ccc(I)cc1Cl [Compound B-13, 2-(2-Chloro-4-iodoanilino)-5-[[2-(cyclopropylsulfamoylamino)-3-fluor opyridin-4-yl]methyl]-3,4-difluoro-N-[(2-methylpropan-2-yl)oxy]benzamide]
IC50 (A549): 26 nM | IC50 (Calu-6): 34 nM | IC50 (MEK1; Table 3, read-out: MEK1 IC50): 13 nM | microsomal CLint at 0.99 µM [1]: 66 µL/min/mg | IC50 (BRAF; read-out: BRAF IC50; Table 3): 10 nM | IC50 (NCI-H2122): 14 nM

NC(=O)c1cc(Cc2ccnc(NS(=O)(=O)NC3CC3)c2F)c(F)c(F)c1Nc1ccc(I)cc1F [Compound A-30, 5-[[2-(cyclopropylsulfamoylamino)-3-fluoropyridin-4-yl]methyl]-3,4-difluoro-2-(2-fluoro-4-iodoanilino)benzamide]
IC50 (A549): 3 nM | IC50 (Calu-6): 8 nM | IC50 (MEK1; Table 3, read-out: MEK1 IC50): 9 nM | microsomal CLint at 0.99 µM [1]: 10 µL/min/mg | IC50 (BRAF; read-out: BRAF IC50; Table 3): 8 nM | IC50 (NCI-H2122): 1 nM

CCS(=O)(=O)Nc1cccc(Cc2cc(C(=O)NOC(C)(C)C)c(Nc3ccc(I)cc3Cl)c(F)c2F)c1F [Compound E-10, 2-(2-Chloro-4-iodoanilino)-5-[[3-(ethylsulfonylamino)-2-fluorophenyl]methyl]-3.4-difluoro-N-[(2-methylpropan-2-yl)oxy]benzamide]
IC50 (A549): 4 nM | IC50 (Calu-6): 27 nM | IC50 (MEK1; Table 3, read-out: MEK1 IC50): 84 nM | microsomal CLint at 0.99 µM [1]: 51 µL/min/mg | IC50 (BRAF; read-out: BRAF IC50; Table 3): 23 nM | IC50 (NCI-H2122): 3 nM

CNS(=O)(=O)Nc1nccc(Cc2cc(C(N)=O)c(Nc3ccc(I)cc3F)c(F)c2F)c1F [Compound A-25, 3,4-difluoro-2-(2-fluoro-4-iodoanilino)-5-[[3-fluoro-2-(methylsulfamoylamino)pyridin-4-yl]methyl]benzamide]
IC50 (A549): 0.5 nM | IC50 (Calu-6): 2 nM | IC50 (MEK1; Table 3, read-out: MEK1 IC50): 5 nM | microsomal CLint at 0.99 µM [1]: 7 µL/min/mg | IC50 (BRAF; read-out: BRAF IC50; Table 3): 2 nM | IC50 (NCI-H2122): 0.2 nM

CNS(=O)(=O)Nc1nccc(Cc2cc(C(=O)NOC)c(Nc3ccc(Br)cc3F)c(F)c2F)c1F [Compound G-3, 2-(4-Bromo-2-fluoroanilino)-3,4-difluoro-5-[[3-fluoro-2-(methylsulfamoylamino)pyridin-4-yl]methyl]-N-methoxybenzamide]
IC50 (A549): 7 nM | IC50 (Calu-6): 47 nM | IC50 (MEK1; Table 3, read-out: MEK1 IC50): 15 nM | microsomal CLint at 0.99 µM [1]: 29 µL/min/mg | IC50 (BRAF; read-out: BRAF IC50; Table 3): 5 nM | IC50 (NCI-H2122): 2 nM

COCCS(=O)(=O)Nc1cccc(Cc2cc(C(N)=O)c(Nc3ccc(I)cc3F)c(F)c2F)c1F [Compound D-5, 3,4-Difluoro-2-(2-fluoro-4-iodoanilino)-5-[[2-fluoro-3-(2-methoxyethylsulfonylamino)phenyl]methyl]benzamide]
IC50 (A549): 10 nM | IC50 (Calu-6): 71 nM | IC50 (MEK1; Table 3, read-out: MEK1 IC50): 169 nM | microsomal CLint at 0.99 µM [1]: 28 µL/min/mg | IC50 (BRAF; read-out: BRAF IC50; Table 3): 7 nM | IC50 (NCI-H2122): 5 nM

COCC(C)(C)NS(=O)(=O)Nc1nccc(Cc2cc(C(N)=O)c(Nc3ccc(I)cc3F)c(F)c2F)c1F [Compound A-24, 3,4-Difluoro-2-(2-fluoro-4-iodoanilino)-5-[[3-fluoro-2-[(1-methoxy-2-methylpropan-2-yl)sulfamoylamino]pyridin-4-yl]methyl]benzamide]
IC50 (A549): 11 nM | IC50 (Calu-6): 51 nM | IC50 (MEK1; Table 3, read-out: MEK1 IC50): 129 nM | microsomal CLint at 0.99 µM [1]: 48 µL/min/mg | IC50 (BRAF; read-out: BRAF IC50; Table 3): 3 nM | IC50 (NCI-H2122): 4 nM

CNS(=O)(=O)Nc1nccc(Cc2cc(C(N)=O)c(Nc3ccc(I)cc3F)n3cncc23)c1F [Compound M-1, 5-(2-Fluoro-4-iodoanilino)-8-[[3-fluoro-2-(methylsulfamoylamino)pyridin-4-yl]methyl]imidazo[1,5-a]pyridine-6-carboxamide]
IC50 (A549): 27 nM | IC50 (Calu-6): 28 nM | IC50 (MEK1; Table 3, read-out: MEK1 IC50): 5 nM | microsomal CLint at 0.99 µM [1]: 59 µL/min/mg | IC50 (BRAF; read-out: BRAF IC50; Table 3): 4 nM | IC50 (NCI-H2122): 13 nM
